Test system: STZ induced diabetic nephropathy in rats
Assay: Study 4: HCQ and its combination with Losartan, Telmisartan, Azilsartan and Ramipril, with Glimepiride control
Assay type: in vivo, Wistar rats
Settings: for HDL / TC / TG / GSH / TBARS / Total protein kidney / Creatinine / Total protein / Urea: after 8th week; for Glucose Day1 / Glucose Day14 / Glucose Day28 / Glucose Day42 / Glucose Day56: blood; for GSH / TBARS / Total protein kidney: kidney homogenate; for Creatinine / Total protein / Urea: serum
Experimental: The methods described in Terri et al, Diabetes Volume, 1997, 46:1612-1618, and Takashi et al, Jpn J. Pharmacol, 1997, 75, 59-64, were followed for inducing Diabetes in rats by injecting Streptozotocin. The Efficacy of the drugs was tested in two different models, one involving comparison with diabetic control (i.e. Diabetic Rats not treated with any medication) and the other involving comparison with the anti-diabetic control group (i.e. Diabetic rats administered Glimepiride) in two separate studies.
Wistar rats of either sex weighing 150-200 g were divided randomly into 28 groups consisting of 6 animals each. Diabetes was induced in rats by single administration of streptozotocin (55 mg/kg/i.p) dissolved in 0.1 M-citrate buffer, pH 4.5. Group 1 (normal control) consisted of normal rats that neither received streptozotocin nor any test drug; Group 2 served as Diabetic control; Group 3 was diabetic rats treated with Hydroxychloroquine (35 mg/kg); Group 4 was diabetic rats treated with Hydroxychloroquine (45 mg/kg) and Group 5 was diabetic rats treated with Hydroxychloroquine (70 mg/kg); Group 6 was diabetic rats treated with Losartan (5.5 mg/kg); Group 7 was diabetic rats treated with Losartan (11 mg/kg); Group 8 was diabetic rats treated with combination of Losartan (5.5 mg/kg) and Hydroxychloroquine (45 mg/kg); Group 9 was diabetic rats treated with combination of Losartan (11 mg/kg) and Hydroxychloroquine (35 mg/kg); Group 10 was diabetic rats treated with Ramipril (0.6 mg/kg); Group 11 was diabetic rats treated with Ramipril (0.3 mg/kg); Group 12 was diabetic rats treated with combination of Ramipril (0.6 mg/kg) and Hydroxychloroquine (35 mg/kg); Group 13 was diabetic rats treated with combination of Ramipril (0.3 mg/kg) and Hydroxychloroquine (45 mg/kg); Group 14 was diabetic rats treated with combination of Ramipril (0.6 mg/kg) and Hydroxychloroquine (45 mg/kg); Group 15 was diabetic rats treated with combination of Ramipril (0.3 mg/kg) and Hydroxychloroquine (35 mg/kg); Group 16 was diabetic rats treated with Telmisartan (9.5 mg/kg); Group 17 was diabetic rats treated with Telmisartan (4.5 mg/kg); Group 18 was diabetic rats treated with combination of Telmisartan (9.5 mg/kg) and Hydroxychloroquine (35 mg/kg); Group 19 was diabetic rats treated with combination of Telmisartan (4.5 mg/kg) and Hydroxychloroquine (45 mg/kg); Group 20 was diabetic rats treated with combination of Telmisartan (9.5 mg/kg) and Hydroxychloroquine (45 mg/kg); Group 21 was diabetic rats treated with combination of Telmisartan (4.5 mg/kg) and Hydroxychloroquine (35 mg/kg); Group 22 was diabetic rats treated with Azilsartan (4.5 mg/kg); Group 23 was diabetic rats treated with Azilsartan (2.5 mg/kg); Group 24 was diabetic rats treated with combination of Azilsartan (4.5 mg/kg) and Hydroxychloroquine (35 mg/kg); Group 25 was diabetic rats treated with combination of Azilsartan (2.5 mg/kg) and Hydroxychloroquine (45 mg/kg); Group 26 was diabetic rats treated with combination of Azilsartan (4.5 mg/kg) and Hydroxychloroquine (45 mg/kg); Group 27 was diabetic rats treated with combination of Azilsartan (2.5 mg/kg) and Hydroxychloroquine (35 mg/kg); Group 28 served as Anti-Diabetic control wherein diabetic rats were treated with antidiabetic drug Glimepiride (GLM) (1 mg/kg).
The study drugs were dissolved/suspended in vehicle and administered orally once a day for eight weeks. The diabetes mellitus induced nephropathy was assessed by estimating the level of serum urea, serum creatinine and total serum protein content after completion of eighth week of study. TBARS, GSH and Total Protein were measured as markers of renal oxidative stress in Kidney Homogenate after completion of eighth week of study. Blood glucose levels were also assessed at weekly interval.

[1] = dose mg/kg: HCQ 35, LT 5.5, RM 0.3, TL 4.5, AZ 2.5, alone or combined with HCQ 35
[2] = dose mg/kg: HCQ 45, LT 11, RM 0.6, TL 9.5, AZ 4.5, alone or combined with HCQ 45

How did the HDL [1] turn out when `CCCCc1nc(Cl)c(CO)n1Cc1ccc(-c2ccccc2-c2nn[nH]n2)cc1` [Losartan] was run?
Its HDL is 27.5 ± 1.64 mg/dL.

And the TC [1]?
The TC was 143.5 ± 3.39 mg/dL.

And the TG [1]?
The TG was 100 ± 5.4 mg/dL.

And the HDL [2]?
The HDL was 28.5 ± 2.88 mg/dL.

And the TC [2]?
Its TC is 139.83 ± 3.19 mg/dL.

And the TG [2]?
The TG was 98.83 ± 3.66 mg/dL.

And the “Glucose Day1” value [1]?
Its value is 262.5 ± 25.35 mg/dL.

What about the “Glucose Day1” value [2] of the same compound?
Its value is 268.67 ± 15.63 mg/dL.

What about the “Glucose Day14” value [1] of the same compound?
The value was 211.17 ± 21.48 mg/dL.

And the “Glucose Day14” value [2]?
Its value is 215.67 ± 18.13 mg/dL.

What about the “Glucose Day28” value [1] of the same compound?
The value was 179.33 ± 7.84 mg/dL.

And the “Glucose Day28” value [2]?
The value was 178 ± 7.92 mg/dL.

What about the “Glucose Day42” value [1] of the same compound?
Its value is 161.17 ± 4.71 mg/dL.

What about the “Glucose Day42” value [2] of the same compound?
The value was 152.17 ± 7.28 mg/dL.

And the “Glucose Day56” value [1]?
Its value is 146.33 ± 6.65 mg/dL.

What about the “Glucose Day56” value [2] of the same compound?
Its value is 139 ± 10.92 mg/dL.

And the GSH [1]?
The GSH was 0.56 ± 0.23 nM/mg.

What about the TBARS [1] of the same compound?
Its TBARS is 0.74 ± 0.1 nM/mg.

And the Total protein kidney [1]?
The Total protein kidney was 893.33 ± 29.92 µg/mL.

What about the GSH [2] of the same compound?
Its GSH is 0.66 ± 0.23 nM/mg.

What about the TBARS [2] of the same compound?
Its TBARS is 0.63 ± 0.17 nM/mg.

And the Total protein kidney [2]?
Its Total protein kidney is 829.67 ± 25.45 µg/mL.

What about the Creatinine [1] of the same compound?
Its Creatinine is 3.36 ± 0.32 mg/dL.

What about the Total protein [1] of the same compound?
Its Total protein is 4.91 ± 0.2 g/dL.

And the Urea [1]?
The Urea was 39.83 ± 1.72 mg/dL.

And the Creatinine [2]?
The Creatinine was 3.26 ± 0.38 mg/dL.

What about the Total protein [2] of the same compound?
The Total protein was 5.32 ± 0.2 g/dL.

What about the Urea [2] of the same compound?
Its Urea is 41 ± 2.53 mg/dL.

How did the HDL [1] turn out when `CCOC(=O)[C@H](CCc1ccccc1)N[C@@H](C)C(=O)N1[C@H](C(=O)O)C[C@@H]2CCC[C@@H]21` [Ramipril] was run?
Its HDL is 27.17 ± 1.47 mg/dL.

And the TC [1]?
Its TC is 138.33 ± 2.94 mg/dL.

What about the TG [1] of the same compound?
Its TG is 100.17 ± 5 mg/dL.

And the HDL [2]?
Its HDL is 27.33 ± 1.63 mg/dL.

And the TC [2]?
The TC was 142.17 ± 3.31 mg/dL.

And the TG [2]?
Its TG is 98.5 ± 4.93 mg/dL.

And the “Glucose Day1” value [1]?
Its value is 281.5 ± 18.2 mg/dL.

And the “Glucose Day1” value [2]?
The value was 260 ± 17.19 mg/dL.

And the “Glucose Day14” value [1]?
The value was 216.17 ± 21.48 mg/dL.

And the “Glucose Day14” value [2]?
The value was 203 ± 14.07 mg/dL.

What about the “Glucose Day28” value [1] of the same compound?
The value was 174.17 ± 9.06 mg/dL.

What about the “Glucose Day28” value [2] of the same compound?
Its value is 174.33 ± 8.91 mg/dL.

What about the “Glucose Day42” value [1] of the same compound?
The value was 158.5 ± 9.07 mg/dL.

What about the “Glucose Day42” value [2] of the same compound?
Its value is 157.67 ± 9.18 mg/dL.

What about the “Glucose Day56” value [1] of the same compound?
Its value is 145.33 ± 6.38 mg/dL.

And the “Glucose Day56” value [2]?
The value was 141.67 ± 5.47 mg/dL.

And the GSH [1]?
The GSH was 1.16 ± 0.62 nM/mg.

And the TBARS [1]?
Its TBARS is 0.67 ± 0.1 nM/mg.

And the Total protein kidney [1]?
The Total protein kidney was 835.33 ± 22.27 µg/mL.

And the GSH [2]?
The GSH was 1.16 ± 0.59 nM/mg.

And the TBARS [2]?
Its TBARS is 0.62 ± 0.15 nM/mg.

What about the Total protein kidney [2] of the same compound?
Its Total protein kidney is 810 ± 17.12 µg/mL.

What about the Creatinine [1] of the same compound?
Its Creatinine is 3.37 ± 0.32 mg/dL.

And the Total protein [1]?
The Total protein was 4.76 ± 0.28 g/dL.

And the Urea [1]?
Its Urea is 41.33 ± 1.97 mg/dL.

And the Creatinine [2]?
The Creatinine was 3.68 ± 0.24 mg/dL.

What about the Total protein [2] of the same compound?
Its Total protein is 4.77 ± 0.21 g/dL.

And the Urea [2]?
Its Urea is 41 ± 1.79 mg/dL.

Source: patent US20160030415A1, “TREATMENT AND PROPHYLAXIS OF KIDNEY DISEASES” (priority 2013, published 2016)
